Results: patent publication US5300491A, “Treatment of protozoal infection” (priority 1992, dated 1994)
Values after ≈ are worked out from the molar mass of the structure shown. Values joined by “and” are separate entries in the source; they are usually repeats but may differ in a detail not shown here. Equal entries are not always repeated. Where two headings read alike, the source gives them in different places. Bridge positions count the residues as written; N and C are the ends. Square brackets hold non-standard residues; d marks the D form. Peptide text beside a SMILES is read from it. * marks the point of attachment. Ileψ(thiazoline)Cys = CC[C@H](C)[C@H](N)C1=N[C@H](C(=O)*)CS1; dOrn = NCCC[C@@H](N)C(=O)O

What was measured:
[1] = test system: E. histolytica axenic cultures (NIH:200); test: Axenic culture study of E. histolytica (NIH:200), cell number reduction; format: cell-based, Entamoeba histolytica
Procedure: Axenic cultures are isolates of amoeba which have been adapted for growth in the absence of bacteria, i.e. they comprise sterile cultures. E. histolytica axenic cultures (NIH:200) were maintained according to the method of Diamond, J. Parasitol. 54, 1047-56 (1968) in TP-S-1 medium modified by replacing the vitamin solution with 2.5% NCTC 135. […] Amoebae were harvested by cooling tubes at 4° C. for 20 minutes in an ice-bath prior to centrifugation at 1,000 rpm for 8 minutes at 4° C. Assays were performed over 36-48 hours, rather than the 24 hour period used for xenic cultures, due to the more extended division time of axenic cultures. All assays were performed in triplicate.

Trichomonas vaginalis = Trichomonas vaginalis assay of other divalent metal salts of bacitracin (MIC); format: cell-based
Procedure: All isolates were treated with either bacitracin or zinc bacitracin.
Prior to being diluted with the medium, the bacitracins were initially solubilized in water to 250 mg/ml. The zinc salt was solubilized in acidified water (60 μl HC1/ml). Duplicate plates of each isolate were prepared. one set of plates was exposed to an aerobic environment; and, the second set was exposed to an anaerobic environment. An Oxoid HP 11 anaerobic gas chamber and BR 38 gas generating kit were used to produce the anaerobic environment.
The procedure of Example IV was repeated, substituting bacitracin salts of the following metals for zinc bacitracin: nickel, cadmium, cobalt, manganese, copper and iron. The MLCs of the bacitracin salts were out of range. However, the MICs indicate that, with the exception of ferrous bacitracin, complexation with a divalent metal salt enhanced the activity of bacitracin.

Tritrichomonas foetus = Tritrichomonas foetus assay (MLC); format: cell-based
Procedure: Duplicate plates of each isolate were prepared. One set of plates was exposed to an aerobic environment; and, the second set was exposed to an anaerobic environment. An Oxoid HP 11 anaerobic gas chamber and BR 38 gas generating kit were used to produce the anaerobic environment. […]

Giardia lamblia = format: cell-based
Procedure: A Portland isolate of G. lamblia was treated with bacitracin and zinc bacitracin according to the procedure of Example IV. An Oxoid HP 11 anaerobic gas chamber and BR 38 gas generating kit were used to produce an anaerobic environment. […] The parasites were incubated in the presence of the treating reagent for 2 4 hours. The viability of the parasites was based on morphology and motility.

Micrococcus uteus = conditions: as obtained from Apothekernes Laboratorium A.S; cited from earlier work
[2] = test system: intestinal amoebic infections; conditions: cited from earlier work
E. histolytica = test: Amoebiasis clinical study; format: in vivo, Human
Procedure: Cysts and trophozoites of E. histolytica were detected initially by wet preparation screening of faeces, and later confirmed by the formal-ether technique. Full parasitological cure was based upon the presentation of 1-2 negative stool samples within one week post treatment.
In a dose-effect segment of the study, two groups of symptomatic E. histolytica cyst or trophozoite passers attending an outpatient clinic for abdominal pains were treated for either ten or five days.
In a dose-duration study, three groups of patients were observed: Group 1 - symptomatic cyst and trophozoite passers; Group 2 - dysenteric patients with bloody diarrheas; and, Group 3 - asymptomatic cyst passers.

G. lamblia = G. lamblia clinical study; format: in vivo, Human; conditions: for patients responding: 200,000 IU daily as tablets for ten days
Excerpt: Based upon this dosage, 6 of the ten metronida-zole-resistant patients in Sweden responded to this regime. In addition, all of the 11 non-selected patients in Romania responded to this regime. Eight of these 11 non-selected patients remained clear of infection for the length of the study.

Cryptosporidium parvum = format: in vivo, Human
Excerpt: The patient was a child, weighing approximately 30 kg. For years, the patient had suffered from moderate diarrhea. Prior to being treated with zinc bacitracin, the patient's stool repeatedly tested positive for intestinal Cryptosporidia. […] The patient received sulfonamide and cefalexin for the influenza during the hiatus. The zinc bacitracin treatment resumed approximately one month later and continued for two weeks thereafter.
After the treatment period, it was observed that the drug was well-tolerated by the patient.

[3] = test system: histidine auxotrophs of Salmonella typhimurium; conditions: absence and presence of a rat liver activating system; cited from earlier work
mouse lymphoma cell = conditions: cited from earlier work
[4] = test system: human peripheral lymphocytes; conditions: cited from earlier work
spleen cells of rats = conditions: rat, in vivo; cited from earlier work
[5] = cited from earlier work
[6] = Portland isolate, anaerobic, 24 hours, two lines of values
[7] = Group 1, 9 patients treated for two days
[8] = Group 1, 12 patients treated for 3 days
[9] = Table 5 dose-effect study, symptomatic cyst & trophozoite passers, 100,000 I.U. daily for 5 days, 5 patients
[10] = Table 5 dose-effect study, symptomatic cyst & trophozoite passers, 100,000 I.U. daily for 10 days, 9 patients
[11] = Table 6 dose-duration study, Group 1 symptomatic cyst and trophozoite passers, 1 day, 2 patients
[12] = Table 6 dose-duration study, Group 1 symptomatic cyst and trophozoite passers, 2 days, 9 patients
[13] = Table 6 dose-duration study, Group 1 symptomatic cyst and trophozoite passers, 3 days, 12 patients
[14] = Table 6 dose-duration study, Group 1 symptomatic cyst and trophozoite passers, 5 days, 5 patients
[15] = Table 7 dose-duration study, Group 2 dysentery cases, 3 days, 5 patients
[16] = Table 8 dose-duration study, Group 3 asymptomatic cyst passers, 3 days, 9 patients
[17] = Table 8 dose-duration study, Group 3 asymptomatic cyst passers, 5 days, 9 patients
[18] = 11 non-selected patients in Romania

In the case of `CC[C@H](C)[C@H](N)C1=N[C@H](C(=O)N[C@@H](CC(C)C)C(=O)N[C@H](CCC(=O)O)C(=O)N[C@H](C(=O)N[C@H]2CCCCNC(=O)[C@H](CC(N)=O)NC(=O)[C@@H](CC(=O)O)NC(=O)[C@H](Cc3cnc[nH]3)NC(=O)[C@@H](Cc3ccccc3)NC(=O)[C@H]([C@@H](C)CC)NC(=O)[C@@H](CCCN)NC2=O)[C@@H](C)CC)CS1` [Bacitracin, reference compound] ({Ileψ(thiazoline)Cys}-L[dE]IK[dOrn]I[dF]H[dD]N; lactam 4-C), the “Cell number reduction compared to controls” value (shortened to “Cell number reduction”) ([1]; axenic culture, 2.5 mg/ml) is reported as 76.4%, the “Cell number reduction” value ([1]; axenic culture, 5 mg/ml) is reported as 92.3% and the “Cell number reduction” value ([1]; axenic culture, 10 mg/ml) is reported as 97.7%. The “Cell number reduction” value ([1]; axenic culture, 15 mg/ml) was 99.9%, the killing of amoeba ([1]; axenic culture, 20 mg/ml, 48 hours) was “All amoeba were killed” and the MIC (Trichomonas vaginalis; T. vaginalis isolate 1910) was 10000 µg/mL. For the same molecule, the MIC (Trichomonas vaginalis; T. vaginalis isolate UCH1) was 10000 µg/mL, the MLC (Tritrichomonas foetus; isolate 121, aerobic) was 28000 µg/mL (≈ 19.7 mM) and the MLC (Tritrichomonas foetus; isolate 121, anaerobic) was 28000 µg/mL (≈ 19.7 mM). The MLC (Tritrichomonas foetus; isolate 138, aerobic) was 28000 µg/mL (≈ 19.7 mM), the MLC (Tritrichomonas foetus; isolate 138, anaerobic) was 28000 µg/mL (≈ 19.7 mM) and the MLC (Tritrichomonas foetus; isolate ATCC 30166, aerobic) was 28000 µg/mL (≈ 19.7 mM). The MLC (Tritrichomonas foetus; isolate ATCC 30166, anaerobic) was 28000 µg/mL (≈ 19.7 mM), the MLC (Tritrichomonas foetus; isolate FT.3741, aerobic) was 28000 µg/mL (≈ 19.7 mM) and the MLC (Tritrichomonas foetus; isolate FT.3741, anaerobic) was 28000 µg/mL (≈ 19.7 mM). It also gave an MLC (Tritrichomonas foetus; isolate S10, aerobic) of 28000 µg/mL (≈ 19.7 mM), an MLC (Tritrichomonas foetus; isolate S10, anaerobic) of 28000 µg/mL (≈ 19.7 mM) and an MLC (Tritrichomonas foetus; isolate TF.7, aerobic) of 28000 µg/mL (≈ 19.7 mM). The MLC (Tritrichomonas foetus; isolate TF.7, anaerobic) was 28000 µg/mL (≈ 19.7 mM), the MICs (Giardia lamblia) was 28.6 to 35.7 mg/mL and the “MLC (first of the two columns per drug)” value (Giardia lamblia; [6]) was 2500 IU/ml and 2000 IU/ml. The “MLC (second of the two columns per drug)” value (Giardia lamblia; [6]) was greater than 3500 IU/ml, the “Potency of the material used” value (Micrococcus uteus) was 70 I.U./mg and the parasitological cure ([2]; 51 patients, 10-20 days, 40,000 to 160,000 units) was 66%. The cure rate ([2]; 100,000 I.U. daily over ten days) was less than 100%.

For Zinc bacitracin, the “Cell number reduction” value ([1]; axenic culture, 1 mg/ml) was 68.3%, the “Cell number reduction” value ([1]; axenic culture, 2 mg/ml) was 90.6% and the “Cell number reduction” value ([1]; axenic culture, 5 mg/ml) was greater than 99.5%. The “concentration required for lethality in axenic as opposed to xenic amoeba cultures” value ([1]; axenic versus xenic) was 2-3 times, the cure (E. histolytica; 100,000 I.U. daily for 3-5 days) was 100% and the cure rate (E. histolytica; [7]) was 55%. The relapse rate (E. histolytica; [7]) was 60%, the “patients relapsed (at days 6 and 10)” value (E. histolytica; [8]) was 16% and the primary cure rate (E. histolytica; [8]) was 100%. For the same molecule, the treatment outcome (E. histolytica; Group 1, two patients treated for 1 day) was “without success”, the “subjects showing parasites in their stools again after two weeks” value (E. histolytica; Group 3 asymptomatic cyst passers, five-day regimen, 9 subjects) was 44% and the “Number Relapsing” value (E. histolytica; [9]) was 0. The “Number Responding” value (E. histolytica; [9]) was 5, the “Number Relapsing” value (E. histolytica; [10]) was 0 and the “Number Responding” value (E. histolytica; [10]) was 9. For the same molecule, the “Number Relapsing” value (E. histolytica; [11]) was 1, the “Number Responding” value (E. histolytica; [11]) was 1 and the “Number Relapsing” value (E. histolytica; [12]) was 3. The “Number Responding” value (E. histolytica; [12]) was 5, the “Number Relapsing” value (E. histolytica; [13]) was 2 and the “Number Responding” value (E. histolytica; [13]) was 12. For the same molecule, the “Number Relapsing” value (E. histolytica; [14]) was 1, the “Number Responding” value (E. histolytica; [14]) was 5 and the “Number Relapsing” value (E. histolytica; [15]) was 1. The “Number Responding” value (E. histolytica; [15]) was 5, the “Number Relapsing” value (E. histolytica; [16]) was 2 and the “Number Responding” value (E. histolytica; [16]) was 8. For the same molecule, the “Number Relapsing” value (E. histolytica; [17]) was 4, the “Number Responding” value (E. histolytica; [17]) was 9 and the side effects (E. histolytica; all patients of the amoebiasis clinical study, 100,000 I.U. daily) was “No side effects were reported”. The cure rate (E. histolytica; dose-effect study, 9 patients treated for 10 days) was 100%, the MIC (Trichomonas vaginalis; T. vaginalis isolate 1910) was 2500 to 5000 µg/mL and the MIC (Trichomonas vaginalis; T. vaginalis isolate UCH1) was 2500 µg/mL. For the same molecule, the MLC (Tritrichomonas foetus; isolate 121, aerobic) was 6000 µg/mL, the MLC (Tritrichomonas foetus; isolate 121, anaerobic) was 6000 µg/mL and the MLC (Tritrichomonas foetus; isolate 138, aerobic) was 6000 µg/mL. For the same molecule, the MLC (Tritrichomonas foetus; isolate 138, anaerobic) was 6000 µg/mL, the MLC (Tritrichomonas foetus; isolate ATCC 30166, aerobic) was 6000 µg/mL and the MLC (Tritrichomonas foetus; isolate ATCC 30166, anaerobic) was 6000 µg/mL. For the same molecule, the MLC (Tritrichomonas foetus; isolate FT.3741, aerobic) was 6000 µg/mL, the MLC (Tritrichomonas foetus; isolate FT.3741, anaerobic) was 5000 µg/mL and the MLC (Tritrichomonas foetus; isolate S10, aerobic) was 6000 µg/mL. It also gave an MLC (Tritrichomonas foetus; isolate S10, anaerobic) of 6000 µg/mL, an MLC (Tritrichomonas foetus; isolate TF.7, aerobic) of 6000 µg/mL and an MLC (Tritrichomonas foetus; isolate TF.7, anaerobic) of 6000 µg/mL. The “MLC (second of the two columns per drug)” value (Giardia lamblia; [6]) was > 400 IU/ml and 300 IU/ml, the MICs (Giardia lamblia; Portland isolate, converted from IU/ml) was 2.3 to 6.3 mg/mL and the “patients remaining clear of infection for the length of the study” value (G. lamblia; [18]) was “Eight”. The patients responding (G. lamblia; [18]) was 11, the patients responding (G. lamblia; ten metronidazole-resistant patients in Sweden) was 6 and the “stool parasites over the course of the treatment period” value (Cryptosporidium parvum; child, 30,000 units thrice daily, 8 days and later two weeks) was “No stool parasites were detected”. The tolerability (Cryptosporidium parvum; human, in vivo) was “well-tolerated”, the “stool test after end of treatment” value (Cryptosporidium parvum; one week after the final discontinuation of treatment) was “began to once again test positive for intestinal cryptosporidia” and the mutagenic potential [3] was “devoid of mutagenic potential”. The “Potency of the material used” value (Micrococcus uteus) was 65 I.U./mg, the “mutation frequency at the TK gene locus” value (mouse lymphoma cell) was “no significant increase in the mutation frequency” and the “damage to chromosomal structure” value [4] was “did not induce any damage to the chromosomal structure”. The nucleoid sedimentation velocity (spleen cells of rats) was “Only a small reduction in nucleoid sedimentation velocity”, the “absorption from the gut” value ([5]; rat, in vivo, po) was “not absorbed from the gut” and the “levels in the livers” value ([5]; rat, in vivo, po) was “No detectable levels”. For the same molecule, the oral toxicity ([5]; rats, sub-chronic and chronic, feed levels up to 1,000 ppm) was “non-toxic”.
